Laboratory results taken from patent US12692396B2, “Fluorescent labeling agent and fluorescent dye” (artience Co., Ltd., priority 2020, dated 2026).

What was measured:
[1] = system: Human epithelium cancer cells A431; test: Evaluation of cell toxicity of fluorescent labeling agent (cell counting kit-8, absorbance at 450 nm); type: cell-based; details: labeling agent left one hour, absorbance relative to DMSO medium solution regarded as one
Protocol: <Evaluation of Cell Toxicity of Fluorescent Labeling Agent>
(§1) Human epithelium cancer cells A431 were seeded in a 96-well plate (1×10^4 cells/well). Next, the A431 were cultured for 24 hours using an RPMI 1640 medium to which 10% fetal bovine serum (FBS) and 1% penicillin-streptomycin had been added in an incubator (37° C., 5% CO2-containing Air, humidified environment). As the RPMI 1640 medium, an RPMI-164-Medium manufactured by Sigma-Aldrich Inc. was used.
After cultivation, the medium was removed, the fluorescent labeling agents prepared in Examples 83 to 123 and Comparative Examples 25 to 37 and an RPMI 1640 medium containing 1% dimethyl sulfoxide (DMSO medium solution) were added thereto. These were left to stand in the incubator for one hour and then washed in the RPMI 1640 medium. 10 μL of a cell counting kit-8 (manufactured by Dojindo Laboratories.) was added to each well and left to stand in the incubator (37° C., 5% CO2-containing Air, humidified environment) for one hour. Next, the absorbance at 450 nm was measured using a plate reader (SPARK, manufactured by Tecan Trading AG).
The relative value of the absorbance of each fluorescent labeling agent when the absorbance of the well to which the DMSO medium solution had been added was regarded as one was calculated and evaluated based on the following standards. […] At the time of calculating the relative value of the absorbance of the fluorescent labeling agent, a value obtained by subtracting the absorbance before the addition of the cell counting kit-8 (manufactured by Dojindo Laboratories.) from the measured absorbance was used.
• P (Pass): 0.8 or more • F (Failure): Less than 0.8 <Evaluation of Fluorescence Intensity of Fluorescent Labeling Agent>

[2] = system: Human epithelium cancer cells A431; test: Evaluation of visibility of cell (fluorescent microscope); type: cell-based; design: key: P (Pass): Clear; F (Failure): Unclear; details: A431 cells, labeling agent left one hour
Protocol: <Evaluation of Visibility of Cell>
as §1, with “The” for “Next, the”, “environment).” for “environment). As the RPMI 1640 medium, an RPMI-164-Medium manufactured by Sigma-Aldrich Inc. was used.”
After cultivation, the medium was removed, and the fluorescent labeling agents prepared in Examples 127 to 189 and Comparative Examples 25 to 37 were added thereto and left to stand in the incubator for one hour. Next, these were washed in the RPMI 1640 medium. The dark field images and fluorescent images of the cells were observed using a fluorescent microscope (manufactured by Keyence Corporation, BZ-X800) equipped with an excitation filter for an appropriate wavelength and a fluorescent filter and evaluated based on the following standards.
• P (Pass): Clear • F (Failure): Unclear
The evaluation results of the visibility of the cells labeled with the fluorescent labeling agents 1, 15, 19, 24, 25, 68, and 75 are sequentially shown in FIGS. 2 to 8 (magnification: 10 times, optical uptake time: 1 second).
The evaluation results of the visibility of the cells labeled with the fluorescent labeling agents 42 and 53 are sequentially shown in FIGS. 9 to 10 (magnification: 40 times, optical uptake time: 1 second).
From what has been described above, it has been clarified that the fluorescent labeling agent according to the embodiment of the present invention has excellent characteristics as a fluorescent labeling agent.

[3] = system: phospholipids; test: Evaluation of property of fluorescent dye being accumulated in phospholipids (labeling agent intensity / dye solution intensity); type: cell-based, Human; details: A431 cells, one hour; relative value, comparative compound 12 regarded as one; fluorescent wavelength range as in Table 22 (780-800 nm, 630-650 nm in last line)
Protocol: <Evaluation of Property of Fluorescent Dye being Accumulated in Phospholipids>
The property of each dye being accumulated in phospholipids was calculated from the fluorescence intensity integral value obtained from the fluorescent spectrum of the dye solution and the fluorescence intensity obtained from the fluorescence intensity of the fluorescent labeling agent using an expression (1). The relative value of the property of each fluorescent labeling agent being accumulated in phospholipids when the property of the comparative compound 12 being accumulated in phospholipids was regarded as one was calculated and evaluated based on the following standards. In a case where the relative value is evaluated as 3 or more, it can be said that each fluorescent dye has a favorable property of being accumulated in phospholipids.
• 4: The property of being accumulated in phospholipids is 4 or more. • 3: The property of being accumulated in phospholipids is 2 or more and less than 4. • 2: The property of being accumulated in phospholipids is 1 or more and less than 2. • 1: The property of being accumulated in phospholipids is less than 1. Property of being accumulated in phospholipids=fluorescence intensity of fluorescent labeling agent/fluorescence intensity of dye solution (1)

[4] = system: Human epithelium cancer cells A431; test: Evaluation of fluorescence intensity of fluorescent labeling agent in labeled cells (plate reader); type: cell-based; details: one hour, FIG. 1, compared with fluorescent labeling agents 68 and 75
Protocol: as §1, with “environment).” for “environment). As the RPMI 1640 medium, an RPMI-164-Medium manufactured by Sigma-Aldrich Inc. was used.”
After cultivation, the medium was removed, and the fluorescent labeling agents prepared in Examples 127 to 167 and Comparative Examples 25 to 37 were added thereto and left to stand in the incubator for one hour. Next, these were washed in the RPMI 1640 medium. The fluorescence intensities were evaluated in fluorescence wavelength ranges shown in Table 22 using the plate reader (SPARK, manufactured by Tecan Trading AG).

SMILES	Cell toxicity [1]	Cell visibility [2]	Property of being accumulated in phospholipids [3]	fluorescence intensity of fluorescent labeling agent [4]
CCOc1cccc2c1C1=NC2=Nc2c3c(OCC)cccc3c3[n]2[Al]([O][Si](C)(C)CCCN)[n]2c(c4cccc(OCC)c4c2=NC2=NC(=N3)c3c(OCC)cccc32)=N1 [Fluorescent dye 1]	P (P (Pass): 0.8 or more)	P	4 (4: The property of being accumulated in phospholipids is 4 or more.)	high fluorescence intensities
CCOc1cccc2c1C1=NC2=Nc2c3c(OCC)cccc3c3[n]2[Al]([O]P(=O)(CCC(=O)O)c2ccccc2)[n]2c(c4cccc(OCC)c4c2=NC2=NC(=N3)c3c(OCC)cccc32)=N1 (centres unmarked) [Fluorescent dye 15]	P (P (Pass): 0.8 or more)	P	4 (4: The property of being accumulated in phospholipids is 4 or more.)	high fluorescence intensities
CCOc1cccc2c1C1=NC2=Nc2c3c(OCC)cccc3c3[n]2[Al]([O]P(=O)(CCC(=O)O)Oc2ccccc2)[n]2c(c4cccc(OCC)c4c2=NC2=NC(=N3)c3c(OCC)cccc32)=N1 (centres unmarked) [Fluorescent dye 18]	P (P (Pass): 0.8 or more)	P	4 (4: The property of being accumulated in phospholipids is 4 or more.)	
CC[N+](CC)(CC)CCC[Si](C)(C)[O][Al]1[n]2c3c4cc(-c5ccccc5)ccc4c2N=C2N=C(N=c4c5cc(-c6ccccc6)ccc5c([n]41)=NC1=NC(=N3)c3ccc(-c4ccccc4)cc31)c1ccc(-c3ccccc3)cc12.[I-] [Fluorescent dye 20]	P (P (Pass): 0.8 or more)	P	4 (4: The property of being accumulated in phospholipids is 4 or more.)	
C[Si](C)(CCC[N+](c1ccccc1)(c1ccccc1)c1ccccc1)[O][Al]1[n]2c3c4cc(C5CCCCC5)c(C5CCCCC5)cc4c2N=C2N=C(N=c4c5cc(C6CCCCC6)c(C6CCCCC6)cc5c([n]41)=NC1=NC(=N3)c3cc(C4CCCCC4)c(C4CCCCC4)cc31)c1cc(C3CCCCC3)c(C3CCCCC3)cc12.[I-] [Fluorescent dye 21]	P (P (Pass): 0.8 or more)	P	4 (4: The property of being accumulated in phospholipids is 4 or more.)	
O=C(O)C(F)(F)C(F)(F)C(=O)NCCc1ccc(S(=O)(=O)[O][Al]2[n]3c4c5cc(C(F)(F)F)ccc5c3N=C3N=C(N=c5c6cc(C(F)(F)F)ccc6c([n]52)=NC2=NC(=N4)c4ccc(C(F)(F)F)cc42)c2ccc(C(F)(F)F)cc23)cc1 [Fluorescent dye 27]	P (P (Pass): 0.8 or more)	P	4 (4: The property of being accumulated in phospholipids is 4 or more.)	
CCCCCCCCCCCCCCCCCCc1ccc2c(c1)C1=NC2=Nc2c3cc(CCCCCCCCCCCCCCCCCC)ccc3c3[n]2[Al]([O]S(=O)(=O)c2ccc(CCNC(=O)C(CC(=O)O)OC(C)=O)cc2)[n]2c(c4ccc(CCCCCCCCCCCCCCCCCC)cc4c2=NC2=NC(=N3)c3cc(CCCCCCCCCCCCCCCCCC)ccc32)=N1 (centres unmarked) [Fluorescent dye 28]	P (P (Pass): 0.8 or more)	P	4 (4: The property of being accumulated in phospholipids is 4 or more.)	
CC(C)C(CC(=O)O)C(=O)NCCc1ccc(S(=O)(=O)[O][Al]2[n]3c4c5cc(C(C)(C)C)ccc5c3N=C3N=C(N=c5c6cc(C(C)(C)C)ccc6c([n]52)=NC2=NC(=N4)c4ccc(C(C)(C)C)cc42)c2ccc(C(C)(C)C)cc23)cc1 (centres unmarked) [Fluorescent dye 29]	P (P (Pass): 0.8 or more)	P	4 (4: The property of being accumulated in phospholipids is 4 or more.)	
